These are literature values, as cited in US9801907B2, “Film-coated and/or granulated calcium-containing compounds and use therof in pharmaceutical compositions” (Takeda Nycomed AS, priority 2005, dated 2017).

The conditions of series [1]: parts substance in parts water.
The conditions of series [2]: annual injections of 150.000-300.000 IU; not in the rate of hip fracture.

For the compound `OC[C@@H](O)[C@@H](O[C@H]1O[C@H](CO)[C@@H](O)[C@H](O)[C@H]1O)[C@H](O)[C@@H](O)CO` [Maltitol], the “Solubility in water at 20° C.” value in series [1] was “Freely soluble”.

In the case of vitamin D, the overall fracture rate result in series [2] is “significant reduction”.

On to Maltodextrins, for which, in series [1], the “Solubility in water at 20° C.” value is reported as “Freely soluble”.
